Source: PubChem BioAssay AID2823 (Broad Institute, 2010)
Calls of active or inactive are those of the source. How the calls were made is not given here.

What follows are compounds tested against RanGTP-importin-beta complex (human Ran / KPNB1) (assay: Ran–importin-beta interaction inhibitors, confirmation, biochemical, FRET, CFP/YFP, cell-free homogeneous (AID 2823)). Settings: CFP-Ran/YFP-importin-beta FRET ratio.

Compound	IC50
CC1C=CCC2C(=O)N(c3ccccc3OC(=O)c3cccs3)C(=O)C12 (stereo not drawn)	> 50 µM (inactive)
O=C(O)c1ccccc1C(=O)Nc1ccc(Br)c2cccnc12	> 50 µM (inactive)
O=C1CC(/C=C/c2ccco2)=Nc2ccccc2N1	> 50 µM (inactive)
COc1ccc(C(=O)c2cc3ccc(O)cc3oc2=O)cc1	16.4 µM
CCSc1nnc(-c2cc(Br)ccc2N=Cc2c(C)[nH]n(-c3ccccc3)c2=O)c(=O)[nH]1	> 50 µM (inactive)
CCOc1ccc(NS(=O)(=O)c2ccc3c(c2)CCN3C(=O)CCC(=O)O)cc1	> 50 µM (inactive)
CCn1c2ccccc2c2cc(NC(=O)CNC)ccc21	> 50 µM (inactive)
COc1ccc(Cl)cc1S(=O)(=O)Nc1noc2ccccc12	> 50 µM (inactive)
COc1cc2c(cc1OC)CN(Cc1cccs1)CC2	> 50 µM (inactive)
Clc1cccc(-c2ccc(C=Nc3ccc(N4CCOCC4)cc3)o2)c1Cl	> 50 µM (inactive)
CC(=O)[C@@H]1[C@@H](C)N(Cc2ccccc2)C(=O)N[C@H]1c1cccc(C(F)(F)F)c1	> 50 µM (inactive)
COCc1ccc(CN2CCCC(CO)(Cc3ccccc3C)C2)o1 (stereo not drawn)	> 50 µM (inactive)
COc1cc(OC)cc(-c2cc3nc(C)cc(N4CCN(C(=O)c5ccco5)CC4)n3n2)c1	4.91 µM
CCOC(=O)c1c(/N=C/c2ccc(C)cc2O)sc2c1CCN(C)C2	> 50 µM (inactive)
O=C1NC(=O)N(Cc2ccccc2)C(=O)/C1=C\N1CCCc2ccccc21	> 50 µM (inactive)
S=c1[nH]c2ccc3ccccc3c2[nH]1	> 50 µM (inactive)
N#CC1=C(N)OC2=C(CCc3ccccc32)C1c1ccccc1 (stereo not drawn)	> 50 µM (inactive)
NC(=O)c1sc2nccc(Nc3ccccc3)c2c1N	> 50 µM (inactive)
CC1C2(C)OC(=N)C(C#N)(C(C)O2)C1(C#N)C#N (stereo not drawn)	44.2 µM
Cc1cc(C=C(C#N)C#N)ccc1N1CCCC1	> 50 µM (inactive)
Cc1ccc2cc(C#N)c(N3CCCN(C(=O)C4CCCO4)CC3)nc2c1 (stereo not drawn)	20.5 µM
Oc1ccc(-c2[nH]ncc2-c2cccc3cccnc23)c(O)c1	> 50 µM (inactive)
COc1ccc(CCn2c(C)nc3ccccc3c2=O)cc1OC	> 50 µM (inactive)
Cc1cccc(N2CCN(C(=O)C3COc4ccccc4O3)CC2)c1C (stereo not drawn)	> 50 µM (inactive)
COC(=O)C1=CN(CC2CCCO2)C=C(C(=O)OC)C1c1cccc(O)c1 (stereo not drawn)	14.1 µM

Compound	IC50
O=C(O)c1cccc(Nc2c3ccccc3nc3ccccc23)c1	> 50 µM (inactive)
O=S(=O)(Nc1nc2ccccc2nc1-[n+]1cccc(N=C([O-])c2ccccc2Cl)c1)c1ccccc1	6.27 µM
CCCCc1cc(-c2n[nH]c(=S)o2)c2ccccc2n1	> 50 µM (inactive)
COc1cc(NC(=O)Cn2ncc(Cl)c(Cl)c2=O)c(C)cc1[N+](=O)[O-]	> 50 µM (inactive)
CC(=O)Nc1ccc(S(=O)(=O)NCc2nc(-c3cccc(C)c3)no2)cc1	> 50 µM (inactive)
CC(C)(C)C(=O)NC(=S)Nc1ccc(S(=O)(=O)Nc2nccs2)cc1	> 50 µM (inactive)
N#Cc1c(N)n(CCNC(=O)c2ccc(Cl)cc2)c2nc3ccccc3nc12	7.21 µM
CC(C)Sc1nc(N2CCOCC2)c2c3c(sc2n1)COC(C)(C)C3	> 50 µM (inactive)
Cn1c(=O)cc(N2CCCCC2)[nH]c1=O	> 50 µM (inactive)
Cc1ccc(C2NC(=O)c3c(sc(C)c3C)N2)c(O)c1 (stereo not drawn)	> 50 µM (inactive)
COc1ccc(NC(=O)COC(C)=O)cc1Cl	> 50 µM (inactive)
Cc1ccc(OCC(=O)NCCNC(=O)c2ccc(C)nc2)cc1	> 50 µM (inactive)
COc1ccccc1N=C(C)C1=C(O)CC(c2ccccc2)CC1=O (stereo not drawn)	> 50 µM (inactive)
Cn1c(SCc2cccc([N+](=O)[O-])c2)nc2c(c1=O)SCC2	> 50 µM (inactive)
CC(=O)N1c2ccc(S(=O)(=O)N3CCC(C(=O)Nc4cccc(Cl)c4)CC3)cc2CC1C (stereo not drawn)	> 50 µM (inactive)
CC(=O)c1cccc(OCC(=O)N(C)CC(=O)Nc2ccc(F)cc2)c1	> 50 µM (inactive)
Cc1cc(C)c2c(N)c(C(=O)NN3CC(=O)N(c4ccccc4F)CC3=O)sc2n1	> 50 µM (inactive)
O=C(CCCO)NNc1c2ccccc2nc2ccccc12	> 50 µM (inactive)
Oc1ccc(Br)cc1/C=N/n1c(-c2ccccc2)n[nH]c1=S	> 50 µM (inactive)
C=C(C)Cn1c(SCC(=O)O)nnc1-c1ccc(OC)cc1	> 50 µM (inactive)
Cc1sc2nc(SCC(=O)NCc3ccco3)n(-c3ccccc3)c(=O)c2c1C	> 50 µM (inactive)
CC1=C(C(=O)OCC2CCCO2)C(c2ccccc2OC(C)C)C2=C(CC(c3ccco3)CC2=O)N1 (stereo not drawn)	8.41 µM
Cc1cc(CNC(=O)COc2ccc(F)cc2)c2ccccc2n1	> 50 µM (inactive)
O=C(CN1CCN(C/C=C/c2ccccc2)CC1)NC(=O)NC1CCCCC1	> 50 µM (inactive)
COc1cc(C(=O)NCCCNc2nc3cc(C)cc(C)c3cc2C#N)cc(OC)c1OC	29.8 µM

Compound	IC50
NC(=O)c1ccc(F)cc1	> 50 µM (inactive)
O=C(Cc1ccccc1C(=O)O)Nc1cccc2ccccc12	> 50 µM (inactive)
COc1cc(NC(=O)C2CC2)c(OC)cc1NC(=O)c1ccco1	> 50 µM (inactive)
O=C(NC1CCCCCC1)C(=S)NCCc1ccccc1	> 50 µM (inactive)
Cc1c(CC(=O)O)c(=O)oc2c(C)c3occ(-c4ccc(F)cc4)c3cc12	> 50 µM (inactive)
CN(C)c1ccc(/C=C(\NC(=O)c2ccccc2)C(=O)NCc2ccncc2)cc1	> 50 µM (inactive)
Nc1c(C(=O)OC2CCCCC2)c2nc3ccccc3nc2n1CC1CCCO1 (stereo not drawn)	27.1 µM
CCn1c(SCC(=O)N(Cc2ccccc2)C2CCS(=O)(=O)C2)nc2ccccc2c1=O (stereo not drawn)	> 50 µM (inactive)
O=[N+]([O-])c1cc(CN2CCCC2)ccc1Sc1ccc(Cl)cc1	> 50 µM (inactive)
COc1ccc(-c2ccc(-c3noc(-c4ccccc4C)n3)c(OC)n2)cc1	> 50 µM (inactive)
COC(=O)C1=CN(Cc2ccc(OC)cc2)C=C(C(=O)OC)C1c1ccc(O)c(OC)c1	> 50 µM (inactive)
CC1(C)CC(=O)C=C(Nc2ccccc2F)C1	> 50 µM (inactive)
CN(C)CCCN(C(=O)c1ccc(Br)s1)c1nc2cc3c(cc2s1)OCCO3	> 50 µM (inactive)
CNC(=S)Nc1ccc(C(N)=O)cc1	> 50 µM (inactive)
Cc1nc2ccc(NC(=O)c3nn(CC(C)C)c(=O)c4ccccc34)cc2s1	> 50 µM (inactive)
N#Cc1c(N)nc2c(c1-c1ccc(F)cc1)CCC2	11 µM
Fc1ccccc1N1CCN(c2nc3ccccc3n3nnnc23)CC1	37.8 µM
Cc1cccc(-n2c(C)cc(/C=C3\C(=N)N4N=C(CC(C)C)SC4=NC3=O)c2C)c1	10.6 µM
O=C(N/N=C/c1ccc(-c2ccccc2Cl)o1)c1ccccc1	> 50 µM (inactive)
CCC(=O)Nc1c(S(=O)(=O)c2ccccc2)c2nc3ccccc3nc2n1Cc1ccccc1	20.9 µM
CC(O)CNc1nc2ccccc2n1CC(=O)NC12CC3CC(CC(C3)C1)C2 (stereo not drawn)	> 50 µM (inactive)
Cc1ccc2nc(/C(C#N)=C/c3ccc(O)c(O)c3)[nH]c2c1	> 50 µM (inactive)
O=C(c1ccco1)N1CCN(c2cc(=O)n(-c3ccc(Cl)cc3)c(=O)[nH]2)CC1	> 50 µM (inactive)
